Measured values: the supplement of paper PMC10307832

Key:
Experiment in all cases: relative viability (nuclei count vs DMSO), 5 days (fraction); higher = more cells survive
[1] = compound: O=C(/C=C/c1ccccc1)NC(NC(=S)Nc1cccc2cccnc12)C(Cl)(Cl)Cl [Salubrinal] + Cc1nc(NC(=O)N2CCC[C@H]2C(N)=O)sc1-c1ccnc(C(C)(C)C(F)(F)F)c1 [Alpelisib] (partner 2 µM)
Method in brief: (§1)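 Relative viability is defined as nuclei in treated wells over nuclei in vehicle wells. Duplicate plates were run and medians reported. Lung cancer cell lines in 1536-well plates were dosed by pin tool one day after seeding, with one drug or with a fixed anchor-drug dose plus five library-drug doses (not always all listed) in √10 steps, and nuclei were counted after 5 days.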

[2] = compound: Cc1ccc2nc(NCCN)c3ncc(C)n3c2c1 + CC(=O)c1c(C)c2cnc(Nc3ccc(N4CCNCC4)cn3)nc2n(C2CCCC2)c1=O [Palbociclib] (partner 0.5 µM)
Method in brief: as §1

[3] = compound: Cc1ccc2nc(NCCN)c3ncc(C)n3c2c1 + Cc1nc(Nc2ncc(C(=O)Nc3c(C)cccc3Cl)s2)cc(N2CCN(CCO)CC2)n1 [Dasatinib] (partner 0.075 µM)
Method in brief: as §1

[4] = compound: Cc1ccc2nc(NCCN)c3ncc(C)n3c2c1 + Nc1ncn([C@H]2C[C@H](O)[C@@H](CO)O2)c(=O)n1 [Decitabine] (partner 2 µM)
Method in brief: as §1

UMC-11
relative viability ([1]; first compound 0.08 µM): 1.29
relative viability ([1]; first compound 0.253 µM): 0.782
relative viability ([1]; first compound 0.8 µM): 1.11
relative viability ([1]; first compound 2.53 µM): 0.963
relative viability ([1]; first compound 8 µM): 0.89
relative viability ([2]; first compound 0.04 µM): 0.34
relative viability ([2]; first compound 0.1265 µM): 0.322
relative viability ([2]; first compound 0.4 µM): 0.322
relative viability ([2]; first compound 1.265 µM): 0.317
relative viability ([2]; first compound 4 µM): 0.341
relative viability ([3]; first compound 0.04 µM): 0.475
relative viability ([3]; first compound 0.1265 µM): 0.477
relative viability ([3]; first compound 0.4 µM): 0.431
relative viability ([3]; first compound 1.265 µM): 0.407
relative viability ([3]; first compound 4 µM): 0.387
relative viability ([4]; first compound 0.04 µM): 0.606
relative viability ([4]; first compound 0.1265 µM): 0.432
relative viability ([4]; first compound 0.4 µM): 0.59
relative viability ([4]; first compound 1.265 µM): 0.679
relative viability ([4]; first compound 4 µM): 0.624
